Active and inactive are the calls of the source. The rule behind the calls is not given here.
Target: Lysine-specific demethylase 6A (Homo sapiens, UniProt O15550)
Experiment: Inhibition of KDM6A
Conditions: not given

Sequence of Lysine-specific demethylase 6A (O15550 whole entry): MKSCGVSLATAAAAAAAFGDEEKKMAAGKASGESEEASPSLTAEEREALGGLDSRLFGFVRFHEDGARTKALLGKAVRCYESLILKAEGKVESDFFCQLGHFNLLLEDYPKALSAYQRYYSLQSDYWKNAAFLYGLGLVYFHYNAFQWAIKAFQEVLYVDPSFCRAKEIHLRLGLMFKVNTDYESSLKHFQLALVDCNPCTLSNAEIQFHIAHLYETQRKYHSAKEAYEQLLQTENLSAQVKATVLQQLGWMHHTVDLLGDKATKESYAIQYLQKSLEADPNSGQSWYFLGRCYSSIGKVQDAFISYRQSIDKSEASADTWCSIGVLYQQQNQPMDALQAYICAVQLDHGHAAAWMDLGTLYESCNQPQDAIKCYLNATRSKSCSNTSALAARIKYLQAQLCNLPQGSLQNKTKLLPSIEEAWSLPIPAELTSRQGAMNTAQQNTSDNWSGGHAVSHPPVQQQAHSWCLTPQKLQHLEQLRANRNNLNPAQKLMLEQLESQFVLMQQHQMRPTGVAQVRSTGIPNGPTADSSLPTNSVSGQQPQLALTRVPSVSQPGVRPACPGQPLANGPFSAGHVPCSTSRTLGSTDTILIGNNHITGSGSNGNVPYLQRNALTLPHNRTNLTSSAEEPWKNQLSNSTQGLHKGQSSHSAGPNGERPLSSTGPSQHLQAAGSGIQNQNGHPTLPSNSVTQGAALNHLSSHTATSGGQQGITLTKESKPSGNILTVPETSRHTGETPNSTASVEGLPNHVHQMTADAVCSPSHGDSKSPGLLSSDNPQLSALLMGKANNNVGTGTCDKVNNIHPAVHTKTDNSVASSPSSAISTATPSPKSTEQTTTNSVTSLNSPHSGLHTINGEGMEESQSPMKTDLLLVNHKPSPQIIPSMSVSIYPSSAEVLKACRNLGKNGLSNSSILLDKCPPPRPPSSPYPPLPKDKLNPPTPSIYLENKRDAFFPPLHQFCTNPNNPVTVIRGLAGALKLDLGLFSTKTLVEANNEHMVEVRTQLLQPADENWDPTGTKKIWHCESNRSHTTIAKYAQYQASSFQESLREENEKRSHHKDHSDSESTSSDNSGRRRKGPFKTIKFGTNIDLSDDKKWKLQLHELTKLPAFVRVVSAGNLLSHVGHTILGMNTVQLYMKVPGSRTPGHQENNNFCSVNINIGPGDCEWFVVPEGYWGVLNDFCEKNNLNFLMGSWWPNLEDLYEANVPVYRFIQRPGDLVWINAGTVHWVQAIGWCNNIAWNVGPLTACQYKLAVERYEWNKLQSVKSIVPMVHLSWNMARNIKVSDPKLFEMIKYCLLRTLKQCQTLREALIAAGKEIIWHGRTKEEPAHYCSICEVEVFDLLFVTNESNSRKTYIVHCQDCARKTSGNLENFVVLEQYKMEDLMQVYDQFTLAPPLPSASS

| Compound | IC50 |
| --- | --- |
| O=C(O)c1ccnc(C(=O)O)c1 | 177 µM |

Target: T1, Lysine-specific demethylase 4C (Homo sapiens) (UniProt Q9H3R0)
T1 sequence (whole entry): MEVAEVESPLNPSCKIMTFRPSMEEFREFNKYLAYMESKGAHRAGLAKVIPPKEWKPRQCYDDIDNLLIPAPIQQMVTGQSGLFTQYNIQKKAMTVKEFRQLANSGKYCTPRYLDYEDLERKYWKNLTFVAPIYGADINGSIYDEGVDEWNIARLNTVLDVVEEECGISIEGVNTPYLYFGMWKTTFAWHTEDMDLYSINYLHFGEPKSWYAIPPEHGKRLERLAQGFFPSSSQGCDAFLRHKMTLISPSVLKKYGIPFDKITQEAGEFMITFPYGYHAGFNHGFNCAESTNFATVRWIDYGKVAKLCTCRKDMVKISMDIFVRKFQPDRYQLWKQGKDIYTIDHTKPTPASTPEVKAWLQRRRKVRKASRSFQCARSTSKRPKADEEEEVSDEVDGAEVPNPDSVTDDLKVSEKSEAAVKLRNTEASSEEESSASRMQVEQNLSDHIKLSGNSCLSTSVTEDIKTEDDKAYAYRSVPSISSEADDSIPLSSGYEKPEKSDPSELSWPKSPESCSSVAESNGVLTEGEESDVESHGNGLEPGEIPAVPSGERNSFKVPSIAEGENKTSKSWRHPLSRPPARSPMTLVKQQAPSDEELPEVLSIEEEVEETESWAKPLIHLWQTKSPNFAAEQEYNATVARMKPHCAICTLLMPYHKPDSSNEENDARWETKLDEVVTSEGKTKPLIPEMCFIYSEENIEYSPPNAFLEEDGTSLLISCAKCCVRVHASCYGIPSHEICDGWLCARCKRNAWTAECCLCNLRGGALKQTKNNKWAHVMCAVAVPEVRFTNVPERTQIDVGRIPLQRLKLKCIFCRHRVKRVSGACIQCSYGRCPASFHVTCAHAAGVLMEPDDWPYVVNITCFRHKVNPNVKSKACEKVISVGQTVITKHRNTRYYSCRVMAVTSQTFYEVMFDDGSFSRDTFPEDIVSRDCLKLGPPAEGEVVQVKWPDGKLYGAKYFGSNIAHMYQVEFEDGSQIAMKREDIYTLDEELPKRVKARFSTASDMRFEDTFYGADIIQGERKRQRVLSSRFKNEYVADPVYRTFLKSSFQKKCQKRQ
Conditions: 500 uM
Description: Inhibition of KDM4C catalytic core-mediated demethylation of ARK(Me)3STGGK at 500 uM after 30 mins by FDH-coupled assay in presence of increasing concentration of Fe(II) ions

| Compound | inhibition |
| --- | --- |
| COC(=O)c1n[nH]c(C(=O)OC)c1O | inactive |

Target: T2, Lysine-specific demethylase 4C (Homo sapiens, UniProt Q9H3R0)
T2 sequence (Q9H3R0 whole entry): T1 sequence (whole entry)
Experiment: Inhibition of KDM4C catalytic core-mediated demethylation of ARK(Me)3STGGK after 30 mins by FDH-coupled assay
Conditions: not given

| Compound | IC50 | Ki |
| --- | --- | --- |
| O=C(O)c1cnn(-c2ccccc2)n1 | > 200 µM | > 200 µM |
| Cc1c(Cl)[n+]([O-])nn1-c1ccccc1 | > 200 µM | > 200 µM |
| [O-][n+]1nn(Cc2ccccc2)cc1Br | > 200 µM | > 200 µM |
| COC(=O)c1n[nH]n(Cc2ccccc2)c1=O | > 200 µM | > 200 µM |
| COn1nnc(C(=O)O)c1C(=O)O | > 200 µM | > 200 µM |
| OB(O)c1cc[nH]n1 | > 200 µM | > 200 µM |
| OCC1C(Cl)=NNN1c1ccccc1 (stereo unspecified) | > 200 µM | > 200 µM |
| Cn1cc(Cl)nc1Cl | > 200 µM | > 200 µM |
| Brc1cn(Cc2ccccc2)nn1 | > 200 µM | > 200 µM |
| Nc1cn(-c2ccccc2)nn1 | > 200 µM | > 200 µM |
| Cc1c(O)c(C(=O)c2ccccc2)nn1-c1ccccc1 | > 200 µM | > 200 µM |
| CCOC(=O)c1nnn(-c2ccccc2)c1NC(C)=O | > 200 µM | > 200 µM |
| O=C(O)c1cc(C(=O)O)[nH]n1 | > 200 µM | > 200 µM |
| O=C1CN=C(c2ccccc2)c2cc([N+](=O)[O-])ccc2N1 [NITRAZEPAM] | > 200 µM | > 200 µM |
| [O-][n+]1nn(Cc2ccccc2)cc1Cl | > 200 µM | > 200 µM |
| [O-][n+]1nn(-c2ccccc2)c(Cl)c1Cl | > 200 µM | > 200 µM |
| Cc1ccc(Cn2cc(C(=O)O)nn2)cc1 | > 200 µM | > 200 µM |
| CCOC(=O)c1[nH]nnc1C | > 200 µM | > 200 µM |
| CSc1c(Cl)[n+]([O-])nn1-c1ccccc1 | > 200 µM | > 200 µM |
| COc1c(-c2ccccc2)nnn1C | > 200 µM | > 200 µM |
| Cn1c(Cl)cnc1CO | > 200 µM | > 200 µM |
| [O-][n+]1nn(Cc2ccccc2)c(C(=S)Nc2ccccc2)c1Cl | > 200 µM | > 200 µM |
| [O-][n+]1nn(-c2ccccc2)c(Br)c1Br | > 200 µM | > 200 µM |
| Cc1c(O)c(C=O)nn1-c1ccccc1 | 100 µM | 142 µM |
| COc1sc(-c2ccccc2)nc1Cl | > 200 µM | > 200 µM |
| O=[N+]([O-])c1cnn(-c2ccccc2)c1 | > 200 µM | > 200 µM |

| Compound | IC50 | Ki |
| --- | --- | --- |
| Clc1csc(-c2ccccc2)n1 | > 200 µM | > 200 µM |
| O=C(O)c1cnnn1-c1ccccc1 | > 200 µM | > 200 µM |
| CN1CN(Cc2ccccc2)C=C1S | > 200 µM | > 200 µM |
| Cn1cc(C(=O)O)nn1 | > 200 µM | > 200 µM |
| COC(=O)c1n[nH]c(C(=O)OC)c1O | 30 µM | 51 µM |
| [O-][n+]1nn(Cc2ccccc2)c(Br)c1Br | > 200 µM | > 200 µM |
| C[n+]1ccnn1-c1ccccc1 | > 200 µM | > 200 µM |
| O=C(O)c1cn(-c2ccccc2)nn1 | > 200 µM | > 200 µM |
| Cn1cc(Br)nc1-c1ccccc1 | > 200 µM | > 200 µM |
| N#Cc1cccnc1Nc1cccnc1Cl | > 200 µM | > 200 µM |
| C[n+]1nn(Cc2ccccc2)cc1Cl | > 200 µM | > 200 µM |
| [O-][n+]1nn(-c2ccccc2)c(Br)c1Cl | > 200 µM | > 200 µM |
| [O-][n+]1nn(-c2ccccc2)c(CO)c1Cl | > 200 µM | > 200 µM |
| Cn1cc(N)nn1 | > 200 µM | > 200 µM |
| COc1ccc(Cn2nnc(C(=O)O)c2N)cc1 | > 200 µM | > 200 µM |
| [O-][n+]1nn(-c2ccccc2)c(Cl)c1Br | > 200 µM | > 200 µM |
| CNC(=O)c1nnn(C)c1O | > 200 µM | > 200 µM |
| Oc1csc(O)n1 | > 200 µM | > 200 µM |
| Cc1c(C(=O)O)cnn1C | > 200 µM | > 200 µM |
| Cc1ccc(-n2nc(C(=O)c3ccccc3)c(O)c2C)cc1 | > 200 µM | > 200 µM |
| O=C(O)c1cc[nH]n1 | > 200 µM | > 200 µM |
| Cc1nn(C)n(C)c1=S | > 200 µM | > 200 µM |
| c1cn[nH]c1 [PYRAZOLE] | > 200 µM | > 200 µM |
| O=C(O)c1cc([N+](=O)[O-])[nH]n1 | > 200 µM | > 200 µM |
| CN1C=C(Br)N(O)N1 | > 200 µM | > 200 µM |

Target: Alcohol dehydrogenase class-3 (Homo sapiens) (UniProt P11766)
Experiment: Inhibition of FDH using formalin as substrate at 0.01 to 500 uM after 30 mins by fluorimetry
Conditions: not given

Sequence of Alcohol dehydrogenase class-3 (Homo sapiens) (P11766 2-374 limits assumed): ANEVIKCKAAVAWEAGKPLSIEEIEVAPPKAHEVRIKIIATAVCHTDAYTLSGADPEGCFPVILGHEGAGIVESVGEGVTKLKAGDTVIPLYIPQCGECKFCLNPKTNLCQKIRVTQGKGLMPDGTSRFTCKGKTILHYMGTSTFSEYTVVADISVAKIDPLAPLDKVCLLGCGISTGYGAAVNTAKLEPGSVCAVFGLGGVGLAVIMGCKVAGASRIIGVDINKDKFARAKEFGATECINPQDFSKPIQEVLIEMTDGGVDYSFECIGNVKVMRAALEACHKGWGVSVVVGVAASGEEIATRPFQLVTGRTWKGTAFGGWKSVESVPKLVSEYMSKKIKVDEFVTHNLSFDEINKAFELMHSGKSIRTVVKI

| Compound | inhibition |
| --- | --- |
| Cc1c(O)c(C=O)nn1-c1ccccc1 | inactive |
| COC(=O)c1n[nH]c(C(=O)OC)c1O | inactive |

— ChEMBL document CHEMBL2069183, “Inhibitor scaffold for the histone lysine demethylase KDM4C (JMJD2C)” (Bioorg Med Chem Lett, 2012)
